Experimental data reported in patent US9066516B2, “Uses of thaxtomin and thaxtomin compositions as herbicides” (priority 2008, dated 2015).

What was measured:
Type in all cases: in vivo
[1] = tested on: corn (Zea mays var. Early Sunglow); assay: Pot study, phytotoxicity on corn (Example 2); details: 0.5 and 1.0 mg/mL, 7, 14 and 21 days after treatment
Protocol: A pot study is conducted to test the phytotoxicity of thaxtomin A on corn (Zea mays var. Early Sunglow) and wheat (Triticum aestivum var. PR1404). To confirm the activity on broadleaf weeds, pigweed (Amaranthus sp.) is planted in the same pot with either three corn or five wheat seeds, and sprayed simultaneously with the cereal test plants. The less than 3-inch tall plants grown under growth lights (12-h light/12-h dark) at 28° C. are sprayed with thaxtomin A solutions derived from a liquid culture of S. acidiscabies containing 0.5, and 1.0 mg thaxtomin A per mL of solvent (4% ethanol and 0.2% non-ionic surfactant). A solution of 4% ethanol +0.2% non-ionic surfactant without thaxtomin A is used as a control treatment. Each treatment is conducted in three replicates. Treated plants are kept at 28° C. under growth lights and observed at three time points—7, 14 and 21 days after treatment—for visual symptoms of phytotoxicity on corn and wheat and % control of pigweed.

crabgrass = assay: Crabgrass seed germination, MBI-005 + m-Tyrosine (Example 15); details: MBI-005 at 0.0035 mg/mL, 7 DAT
Protocol: Forty-five seeds were placed on a ring of blotter paper inside a 3 cm petri dish, covered with 10 cm^3 of inert baked clay particle media and supplied with 7 ml of 0.035 mg/ml MBI-005, a m-Tyrosine concentration, or a combination of MBI-005 and m-Tyrosine (Table 14). Water was used as a negative control. Petri dishes were randomly placed in a growth room at 25° C. and 50% RH. Treatments were replicated three times and germinated seeds were counted 7 days after application; water was added as necessary to maintain moisture levels inside each petri dish.
Synergy was calculated as the ratio of observed (E) to expected (E/Ee) reduction in germination using Colby's formula.

[2] = tested on: Ricefield bullrush (Scirpus mucronatus); assay: Post-emergence test of MBI-005, field (Example 13)
Protocol: (§1) In field testing, field soil containing weeds at the 1-5 leaf stage were treated with 38.2 L MBI-005/ha at a spray volume of 374 L/ha. Treatments, including water as the negative control and WeedBGon or Preen Broadleaf as the positive control, were replicated four times and applied twice at a four week interval. The positive control on Late watergrass, Ricefield Bulrush, Smallflower sedge and Arrowhead was an herbicide containing as active ingredient 2,4-D and an organosilicone surfactant was added to MBI-005. Treatments were assessed for % control and % ground cover.

[3] = tested on: Common chickweed (Stellaria media); assay: Post-emergence test of MBI-005, field (Example 13)
Protocol: as §1

Bluegrass (Poa annua) = assay: Post-emergence test of MBI-005, field (Example 13)
Protocol: as §1

[4] = tested on: Common groundsel (Senecio vulgaris); assay: Post-emergence test of MBI-005, field (Example 13)
Protocol: as §1

[5] = tested on: Smallflower (Cyperus difformis); assay: Post-emergence test of MBI-005, field (Example 13); details: Smallflower (sedge)
Protocol: as §1

[6] = tested on: Bermuda buttercup (Oxalis pes-caprae); assay: Post-emergence test of MBI-005, field (Example 13)
Protocol: as §1

[7] = tested on: Hairy bittercress (Cardamine hirsuta); assay: Post-emergence test of MBI-005, field (Example 13)
Protocol: as §1

[8] = tested on: Flexuous bittercress (Cardamine flexuosa); assay: Post-emergence test of MBI-005, field (Example 13)
Protocol: as §1

[9] = tested on: Velvetleaf (Abutilon theophrasti); assay: Post-emergence test of MBI-005, field (Example 13)
Protocol: as §1

[10] = tested on: Arrowhead (Sagittaria montevidensis); assay: Post-emergence test of MBI-005, field (Example 13)
Protocol: as §1

[11] = tested on: Clover (Trifolium hirtum); assay: Post-emergence test of MBI-005, field (Example 13)
Protocol: as §1

[12] = tested on: Shepherd's purse (Capsella bursa-pastoris); assay: Post-emergence test of MBI-005, field (Example 13)
Protocol: as §1

[13] = tested on: Nightshade, Eastern Black (Solanum ptychanthum); assay: Post-emergence test of MBI-005, field (Example 13)
Protocol: as §1

[14] = tested on: Late watergrass (Echinochloa phyllopogon); assay: Post-emergence test of MBI-005, field (Example 13)
Protocol: as §1

[15] = tested on: Marsh watercress (Rorippa islandica); assay: Post-emergence test of MBI-005, field (Example 13)
Protocol: as §1

[16] = tested on: Henbit (Lamimum amplexicaule); assay: Post-emergence test of MBI-005, field (Example 13)
Protocol: as §1

[17] = tested on: Hairy galinsoga (Galinsoga ciliata); assay: Post-emergence test of MBI-005, field (Example 13)
Protocol: as §1

[18] = tested on: Common yellow oxalis (Oxalis pes-caprae); assay: Post-emergence test of MBI-005, field (Example 13)
Protocol: as §1

Eclipta (Eclipta alba) = assay: Post-emergence test of MBI-005, field (Example 13)
Protocol: as §1

barnyard grass = assay: Greenhouse synergy test MBI-005 + commercial herbicides (Example 11); details: 14 days
Protocol: The test species barnyard grass, ragweed, sedge, and broad-leaf mustard were used for the valuation of synergy between MBI-005 and the rice herbicides clomazone, penoxsulam, cyhalofop, fenoxaprop-p-ethyl, bispyribac-sodium, thiobencarb, and propanil.
There were 3 replicates per treatment which were sprayed with approximately ⅔ ml per replicate. The treatments were completely randomized and kept in a greenhouse at 25° C. The efficacy was rated at 7 and 14 days post treatment.

[19] = tested on: sprangletop: Leptochloa uninervia; assay: Greenhouse study thaxtomin A / sarmentine (Example 9); details: Thaxtomin A 0.2 mg/mL; 25 days after treatment
Protocol: (§2) A strain of S. acidiscabies was grown in oat bran broth for 5 days (25° C., 200 rpm). The whole cell broth was extracted using XAD resin, and the dried crude extract was resuspended in 4% ethanol and 0.2% non-ionic surfactant at a concentration of 10 mg/mL. The diluted extracts containing 0.2 and 0.4 mg thaxtomin A per mL were tested on three weed species (redstem; Ammania spp., smallflower umbrella sedge; Cyperus difformis and sprangletop: Leptochloa uninervia). Other treatments included sarmentine at 2.5 and 5.0 mg/mL, and a combination treatment containing 0.2 mg thaxtomin A and 2.5 mg sarmentine per mL. Each treatment was applied in three replicates. Treated plants were kept in a greenhouse under 12 h light/12 h dark conditions.

[20] = tested on: smallflower umbrella sedge; Cyperus difformis; assay: as above; details: Thaxtomin A 0.2 mg/mL; 25 days after treatment
Protocol: as §2

redstem; Ammania spp. = assay: as above; details: 25 days after treatment
Protocol: as §2

CN1C(=O)[C@](O)(Cc2cccc(O)c2)N(C)C(=O)[C@@H]1Cc1c[nH]c2cccc([N+](=O)[O-])c12 [thaxtomin A]
symptoms of phytotoxicity [1]: no symptoms of phytotoxicity are observed
E (% controlled compared to UTC) (crabgrass): 14.3%
AVG No. germinated (crabgrass; forty-five seeds): 38.0
Rating at 1 mg/ml (Post-Emergence % control) [2]: ++++ (91-100)
Rating at 1 mg/ml (Post-Emergence % control) [3]: ++ (51-80)
Rating at 1 mg/ml (Post-Emergence % control) (Bluegrass (Poa annua)): ++ (51-80)
Rating at 1 mg/ml (Post-Emergence % control) [4]: ++++ (91-100)
Rating at 1 mg/ml (Post-Emergence % control) [5]: ++++ (91-100)
Rating at 1 mg/ml (Post-Emergence % control) [6]: ++++ (91-100)
Rating at 1 mg/ml (Post-Emergence % control) [7]: ++ (51-80)
Rating at 1 mg/ml (Post-Emergence % control) [8]: ++ (51-80)
Rating at 1 mg/ml (Post-Emergence % control) [9]: ++ (51-80)
Rating at 1 mg/ml (Post-Emergence % control) [10]: ++++ (91-100)
Rating at 1 mg/ml (Post-Emergence % control) [11]: ++ (51-80)
Rating at 1 mg/ml (Post-Emergence % control) [12]: ++++ (91-100)
Rating at 1 mg/ml (Post-Emergence % control) [13]: ++ (51-80)
Rating at 1 mg/ml (Post-Emergence % control) [14]: +++ (81-90)
Rating at 1 mg/ml (Post-Emergence % control) [15]: ++ (51-80)
Rating at 1 mg/ml (Post-Emergence % control) [16]: ++++ (91-100)
Rating at 1 mg/ml (Post-Emergence % control) [17]: +++ (81-90)
Rating at 1 mg/ml (Post-Emergence % control) [18]: ++++ (91-100)
Rating at 1 mg/ml (Post-Emergence % control) (Eclipta (Eclipta alba)): ++ (51-80)
% Control MBI-005 (barnyard grass; MBI-005 0.125 mg/mL (bispyribac-sodium line)): 3.3%
% Control MBI-005 (barnyard grass; MBI-005 0.125 mg/mL (penoxsulam line)): 17.5%
% Control MBI-005 (barnyard grass; MBI-005 0.125 mg/mL (propanil line)): 10.0%
% Control MBI-005 (barnyard grass; MBI-005 0.25 mg/mL (fenoxaprop-p-ethyl line)): 66.7%
% Control MBI-005 (barnyard grass; MBI-005 0.25 mg/mL (thiobencarb line)): 41.7%
Control of sprangletop (%) [19]: 8.3ab %
Control of sedge (%) [20]: 48.3b %
Control of redstem (%) (redstem; Ammania spp.; Thaxtomin A 0.2 mg/mL): 5.0b %
Control of redstem (%) (redstem; Ammania spp.; Thaxtomin A 0.4 mg/mL, *stunted): 11.7c* %
